Measured values taken from patent publication US11180462B2, “Microbiocidal oxadiazole derivatives” (SYNGENTA PARTICIPATIONS AG, priority 2015, dated 2021).

Legend:
[1] = system: Phakopsora Pachyrhizi; test: Fungicidal activity against Phakopsora pachyrhizi / soybean / leaf disc preventative (Asian soybean rust); assay type: in vivo; settings: foliar, 200 ppm in the applied formulation, soybean leaf disks, compared to untreated control leaf disks, read-out: disease control
In short: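 Scored 12 to 14 days post-application as percent control relative to untreated check discs, rust spores were sprayed under the disc one day after compound treatment. Incubation: 20°C, 75% rh, first 24–36 h in darkness, then 12 h daily light; discs kept on water agar.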

[2] = system: Glomerella lagenarium (Colletotrichum lagenarium); test: Fungicidal activity against Glomerella lagenarium (Colletotrichum lagenarium) liquid culture / cucumber / preventative (anthracnose); assay type: cell-based; settings: Colletotrichum orbiculare; 20 ppm in the applied formulation; liquid culture (PDB), growth inhibition measured photometrically after 3 to 4 days; compared to untreated control; read-out: disease control
In short: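 Percent activity against the untreated check was derived from photometric growth measurements made 2 to 7 days after conidia in potato dextrose broth were combined with compound at 20 ppm. Cultures were kept dark at 24 °C and 96% humidity.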

[3] = system: Puccinia recondita f. Sp. Tritici; test: Fungicidal activity against Puccinia recondita f. sp. tritici / wheat / leaf disc curative (brown rust); assay type: in vivo; settings: foliar, 24 h, 200 ppm in the applied formulation, wheat leaf segments, curative (applied 1 day after inoculation), compared to untreated control leaf disks, read-out: disease control
In short: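 Inoculate cv. Kanzler segments on agar; hold dark, 19° C, 75% RH. Spray diluted formulated compound at day 1. Incubate 12 h light/12 h dark, same temperature and humidity; score % control vs untreated 6–8 days later.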

[4] = system: Puccinia recondita f. Sp. Tritici; test: Fungicidal activity against Puccinia recondita f. sp. tritici / wheat / leaf disc preventative (brown rust); assay type: in vivo; settings: foliar, 200 ppm in the applied formulation, wheat leaf segments, preventative, compared to untreated control leaf disks, read-out: disease control
In short: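 Percent disease control relative to untreated check segments is scored once disease develops, 7 to 9 days after application. Wheat cv. Kanzler segments receive compound spray (200 ppm in formulation) one day before spore inoculation, then sit at 19° C. and 75% rh under 12 h light/12 h dark.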

COCCC(=O)N(Cc1ccc(-c2noc(C(F)(F)F)n2)cc1)OC [Compound 1.31, N,3-dimethoxy-N-[[4-[5-(trifluoromethyl)-1,2,4-oxadiazol-3-yl]phenyl]methyl]-propanamide]
≥ 80%: pest or weed control at 200 ppm [1] | inhibition of growth at 20 ppm [2] | pest or weed control at 200 ppm [3] | pest or weed control at 200 ppm [4]

CON(Cc1ccc(-c2noc(C(F)(F)F)n2)cc1)C(=O)C1(C)CC1(Cl)Cl (centres unmarked) [Compound 1.32, 2,2-dichloro-N-methoxy-1-methyl-N-[[4-[5-(trifluoromethyl)-1,2,4-oxadiazol-3-yl]phenyl]methyl]-cyclopropane-carboxamide]
≥ 80%: pest or weed control at 200 ppm [1] | inhibition of growth at 20 ppm [2] | pest or weed control at 200 ppm [3] | pest or weed control at 200 ppm [4]

CON(Cc1ccc(-c2noc(C(F)(F)F)n2)cc1)C(=O)CC(C)C [Compound 1.34, N-methoxy-3-methyl-N-[[4-[5-(trifluoromethyl)-1,2,4-oxadiazol-3-yl]phenyl]methyl]-butanamide]
≥ 80%: pest or weed control at 200 ppm [1] | inhibition of growth at 20 ppm [2] | pest or weed control at 200 ppm [3] | pest or weed control at 200 ppm [4]

CON(Cc1ccc(-c2noc(C(F)(F)F)n2)cc1)C(=O)C(C)(C)CCl [Compound 1.35, 3-chloro-N-methoxy-2,2-dimethyl-N-[[4-[5-(trifluoromethyl)-1,2,4-oxadiazol-3-yl]phenyl]methyl]-propanamide]
≥ 80%: pest or weed control at 200 ppm [1] | inhibition of growth at 20 ppm [2] | pest or weed control at 200 ppm [3] | pest or weed control at 200 ppm [4]

CON(Cc1ccc(-c2noc(C(F)(F)F)n2)cc1)C(=O)CC(F)(F)F [Compound 1.36, 3,3,3-trifluoro-N-methoxy-N-[[4-[5-(trifluoromethyl)-1,2,4-oxadiazol-3-yl]phenyl]methyl]-propanamide]
≥ 80%: pest or weed control at 200 ppm [1] | inhibition of growth at 20 ppm [2] | pest or weed control at 200 ppm [3] | pest or weed control at 200 ppm [4]

CON(Cc1ccc(-c2noc(C(F)(F)F)n2)cc1)C(=O)C1CCC1 [Compound 1.38, N-methoxy-N-[[4-[5-(trifluoromethyl)-1,2,4-oxadiazol-3-yl]phenyl]methyl]-cyclobutane-carboxamide]
≥ 80%: pest or weed control at 200 ppm [1] | inhibition of growth at 20 ppm [2] | pest or weed control at 200 ppm [3] | pest or weed control at 200 ppm [4]

CON(Cc1ccc(-c2noc(C(F)(F)F)n2)cc1)C(=O)C1CC1C (centres unmarked) [Compound 1.40, N-methoxy-2-methyl-N-[[4-[5-(trifluoromethyl)-1,2,4-oxadiazol-3-yl]phenyl]methyl]-cyclopropane-carboxamide]
≥ 80%: pest or weed control at 200 ppm [1] | inhibition of growth at 20 ppm [2] | pest or weed control at 200 ppm [3] | pest or weed control at 200 ppm [4]

CON(Cc1ccc(-c2noc(C(F)(F)F)n2)cc1)C(=O)CC(C)(C)C [Compound 1.41, N-methoxy-3,3-dimethyl-N-[[4-[5-(trifluoromethyl)-1,2,4-oxadiazol-3-yl]phenyl]methyl]-butanamide]
≥ 80%: pest or weed control at 200 ppm [1] | inhibition of growth at 20 ppm [2] | pest or weed control at 200 ppm [3] | pest or weed control at 200 ppm [4]

CON(Cc1ccc(-c2noc(C(F)(F)F)n2)cc1)C(=O)C(C)(C)C [Compound 1.42, N-methoxy-2,2-dimethyl-N-[[4-[5-(trifluoromethyl)-1,2,4-oxadiazol-3-yl]phenyl]methyl]-propanamide]
≥ 80%: pest or weed control at 200 ppm [1] | inhibition of growth at 20 ppm [2] | pest or weed control at 200 ppm [3] | pest or weed control at 200 ppm [4]

CON(Cc1ccc(-c2noc(C(F)(F)F)n2)cc1)C(=O)C1(C)CC1 [Compound 1.43, N-methoxy-1-methyl-N-[[4-[5-(trifluoromethyl)-1,2,4-oxadiazol-3-yl]phenyl]methyl]-cyclopropane-carboxamide]
≥ 80%: pest or weed control at 200 ppm [1] | inhibition of growth at 20 ppm [2] | pest or weed control at 200 ppm [3] | pest or weed control at 200 ppm [4]

CON(Cc1ccc(-c2noc(C(F)(F)F)n2)cc1)C(=O)c1ccccc1Cl [Compound 1.44, 2-chloro-N-methoxy-N-[[4-[5-(trifluoromethyl)-1,2,4-oxadiazol-3-yl]phenyl]methyl]-benzamide]
≥ 80%: pest or weed control at 200 ppm [1] | inhibition of growth at 20 ppm [2] | pest or weed control at 200 ppm [3] | pest or weed control at 200 ppm [4]

C=C(C)C(=O)N(Cc1ccc(-c2noc(C(F)(F)F)n2)cc1)OC [Compound 1.45, N-methoxy-2-methyl-N-[[4-[5-(trifluoromethyl)-1,2,4-oxadiazol-3-yl]phenyl]methyl]-prop-2-enamide]
≥ 80%: pest or weed control at 200 ppm [1] | inhibition of growth at 20 ppm [2] | pest or weed control at 200 ppm [3] | pest or weed control at 200 ppm [4]

CON(Cc1ccc(-c2noc(C(F)(F)F)n2)cc1)C(=O)C1CCSCC1 [Compound 1.46, N-methoxy-N-[[4-[5-(trifluoromethyl)-1,2,4-oxadiazol-3-yl]phenyl]methyl] tetrahydrothiopyran-4-carboxamide]
≥ 80%: pest or weed control at 200 ppm [1] | inhibition of growth at 20 ppm [2] | pest or weed control at 200 ppm [3] | pest or weed control at 200 ppm [4]

CON(Cc1ccc(-c2noc(C(F)(F)F)n2)cc1)C(=O)C1CC1(C)C (centres unmarked) [Compound 1.47, N-methoxy-2,2-dimethyl-N-[[4-[5-(trifluoromethyl)-1,2,4-oxadiazol-3-yl]phenyl]methyl]-cyclopropane-carboxamide]
≥ 80%: pest or weed control at 200 ppm [1] | inhibition of growth at 20 ppm [2] | pest or weed control at 200 ppm [3] | pest or weed control at 200 ppm [4]

CCC(C)C(=O)N(Cc1ccc(-c2noc(C(F)(F)F)n2)cc1)OC (centres unmarked) [Compound 1.48, N-methoxy-2-methyl-N-[[4-[5-(trifluoromethyl)-1,2,4-oxadiazol-3-yl]phenyl]methyl]-butanamide]
≥ 80%: pest or weed control at 200 ppm [1] | inhibition of growth at 20 ppm [2] | pest or weed control at 200 ppm [3] | pest or weed control at 200 ppm [4]

CON(Cc1ccc(-c2noc(C(F)(F)F)n2)cc1)C(=O)Cc1ccc(Cl)cc1 [Compound 1.49, 2-(4-chlorophenyl)-N-methoxy-N-[[4-[5-(trifluoromethyl)-1,2,4-oxadiazol-3-yl]phenyl]methyl]-acetamide]
≥ 80%: pest or weed control at 200 ppm [1] | inhibition of growth at 20 ppm [2] | pest or weed control at 200 ppm [3] | pest or weed control at 200 ppm [4]

CON(Cc1ccc(-c2noc(C(F)(F)F)n2)cc1)C(=O)C1(C)COC1 [Compound 1.50, N-methoxy-3-methyl-N-[[4-[5-(trifluoromethyl)-1,2,4-oxadiazol-3-yl]phenyl]methyl]-oxetane-3-carboxamide]
≥ 80%: pest or weed control at 200 ppm [1] | inhibition of growth at 20 ppm [2] | pest or weed control at 200 ppm [3] | pest or weed control at 200 ppm [4]

CON(Cc1ccc(-c2noc(C(F)(F)F)n2)cc1)C(=O)CCCCC(F)(F)F [Compound 1.53, 6,6,6-trifluoro-N-methoxy-N-[[4-[5-(trifluoromethyl)-1,2,4-oxadiazol-3-yl]phenyl]methyl]-hexanamide]
≥ 80%: pest or weed control at 200 ppm [1] | inhibition of growth at 20 ppm [2] | pest or weed control at 200 ppm [3] | pest or weed control at 200 ppm [4]

CCC(COC)C(=O)N(Cc1ccc(-c2noc(C(F)(F)F)n2)cc1)OC (centres unmarked) [Compound 1.57, N-methoxy-2-(methoxymethyl)-N-[[4-[5-(trifluoromethyl)-1,2,4-oxadiazol-3-yl]phenyl]methyl]-butanamide]
≥ 80%: pest or weed control at 200 ppm [1] | inhibition of growth at 20 ppm [2] | pest or weed control at 200 ppm [3] | pest or weed control at 200 ppm [4]

COCCCC(=O)N(Cc1ccc(-c2noc(C(F)(F)F)n2)cc1)OC [Compound 1.59, N,4-dimethoxy-N-[[4-(5-(trifluoromethyl)-1,2,4-oxadiazol-3-yl]phenyl]methyl]-butanamide]
≥ 80%: pest or weed control at 200 ppm [1] | inhibition of growth at 20 ppm [2] | pest or weed control at 200 ppm [3] | pest or weed control at 200 ppm [4]

CON(Cc1ccc(-c2noc(C(F)(F)F)n2)cc1)C(=O)CC1CC1(F)F (centres unmarked) [Compound 1.64, 2-(2.2-difluorocyclopropyl)-N-methoxy-N-[[4-[5-(trifluoromethyl)-1,2,4-oxadiazol-3-yl]phenyl]methyl]-acetamide]
≥ 80%: pest or weed control at 200 ppm [1] | inhibition of growth at 20 ppm [2] | pest or weed control at 200 ppm [3] | pest or weed control at 200 ppm [4]

C#CCOC(=O)NC(C(=O)N(Cc1ccc(-c2noc(C(F)(F)F)n2)cc1)OC)C(C)C (centres unmarked) [Compound 1.77, prop-2-ynyl N-[1-[methoxy-[[4-[5-(trifluoromethyl)-1,2,4-oxadiazol-3-yl]phenyl]methyl]carbamoyl]-2-methyl-propyl]carbamate]
≥ 80%: pest or weed control at 200 ppm [1] | inhibition of growth at 20 ppm [2] | pest or weed control at 200 ppm [3] | pest or weed control at 200 ppm [4]

COC(C)C(=O)N(Cc1ccc(-c2noc(C(F)(F)F)n2)cc1)OC (centres unmarked) [Compound 1.81, N,2-dimethoxy-N-[[4-[5-(trifluoromethyl)-1,2,4-oxadiazol-3-yl]phenyl]methyl]-propanamide]
≥ 80%: pest or weed control at 200 ppm [1] | inhibition of growth at 20 ppm [2] | pest or weed control at 200 ppm [3] | pest or weed control at 200 ppm [4]
